Results taken from US10231453B2, “5-substituted imidazole derivatives” (BAYER CROPSCIENCE AKTIENGESELLSCHAFT, priority 2015, dated 2019).
Read-outs that look alike come from different tables or passages of the source.

Legend:
Septoria tritici [1] = experiment: In vitro test for the calculation of the ED50-value with microorganisms, Example Q4: Septoria tritici; assay type: cell-based; conditions: liquid culture, spore suspension, 4 to 7 days incubation, spectrometric measurement of mycelium growth
Septoria tritici [2] = experiment: In vivo preventive test on Septoria tritici (leaf spot on wheat), Examples E, Q3 and R5; conditions: for Efficacy in %: Example Q3
Pyrenophora teres = experiment: In vivo preventive test on Pyrenophora teres (net blotch on barley), Examples D, Q2 and R4
Fusarium culmorum [3] = experiment: In vitro test for the calculation of the ED50-value with microorganisms, Example Q4: Fusarium culmorum; assay type: cell-based; conditions: liquid culture, spore suspension, 4 to 7 days incubation, spectrometric measurement of mycelium growth
Procedure: • Solvent: Dimethyl sulfoxide • Culture medium: 14.6 g anhydrous D-glucose (VWR), 7.1 g Mycological Peptone (Oxoid), 1.4 g granulated Yeast Extract (Merck), QSP liter • Inoculum: Spore suspension
Fungicides were solubilized in DMSO and the solution used to prepare the required range of concentrations. The final concentration of DMSO used in the assay was ≤1%.
A spore suspension was prepared and diluted to the desired spore density.
Fungicides were evaluated for their ability to inhibit spore germination and mycelium growth in liquid culture assay. The compounds were added in the desired concentration to the culture medium with spores. After 4 to 7 days incubation, fungi-toxicity of compounds was determined by spectrometric measurement of mycelium growth. Inhibition of fungal growth was determined by comparing the absorbance values in wells containing the fungicides with the absorbance in control wells without fungicides.

Leptosphaeria nodorum [4] = experiment: In vitro test for the calculation of the ED50-value with microorganisms, Example Q4: Leptosphaeria nodorum; assay type: cell-based; conditions: liquid culture, spore suspension, 4 to 7 days incubation, spectrometric measurement of mycelium growth
Botrytis cinerea [5] = experiment: In vivo preventive test on Botrytis cinerea (grey mould) on gherkin, Examples B, Q1 and R2
Botrytis cinerea [6] = experiment: In vitro test for the calculation of the ED50-value with microorganisms, Example Q4: Botrytis cinerea; assay type: cell-based; conditions: liquid culture, spore suspension, 4 to 7 days incubation, spectrometric measurement of mycelium growth
Fusarium graminearum = experiment: whole plant or invertebrate; assay type: in vivo; conditions: in Hordeum vulgare, 120 h, read-out: efficacy
Venturia inaequalis = experiment: In vivo preventive Venturia test (apples), Example J; conditions: 240 h, read-out: efficacy
Procedure: After the spray coating has dried on, the plants are inoculated with an aqueous conidia suspension of the causal agent of apple scab (Venturia inaequalis) and then remain for 1 day in an incubation cabinet at approximately 20° C. and a relative atmospheric humidity of 100%.
The plants are then placed in a greenhouse at approximately 21° C. and a relative atmospheric humidity of approximately 90%.
The test is evaluated 10 days after the inoculation.

Pyricularia oryzae = experiment: whole plant or invertebrate; assay type: in vivo; conditions: 192 h, read-out: efficacy
Fusarium culmorum [7] = experiment: In vivo preventive Fusarium culmorum test (wheat), Example L; conditions: 120 h, 500 ppm of active ingredient, preventive spray, evaluated 5 days after inoculation, read-out: efficacy
Procedure: After the spray coating has been dried, the plants are slightly injured by using a sandblast and afterwards they are sprayed with a conidia suspension of Fusarium culmorum.
The test is evaluated 5 days after the inoculation.

[8] = system: Fusarium nivale (var. majus); experiment: In vivo preventive Fusarium nivale (var. majus) test (wheat), Example O; conditions: Microdochium nivale, 120 h, 500 ppm of active ingredient, preventive spray, evaluated 5 days after inoculation, read-out: efficacy
Source text: After the spray coating has been dried, the plants are slightly injured by using a sandblast and afterwards they are sprayed with a conidia suspension of Fusarium nivale (var. majus).

Leptosphaeria nodorum [9] = experiment: In vivo preventive Leptosphaeria nodorum test (wheat), Example N; conditions: Parastagonospora nodorum, 192 h, 500 ppm of active ingredient, preventive spray, evaluated 8 days after inoculation, read-out: efficacy
Source text: After the spray coating has been dried, the plants are sprayed with a spore suspension of Leptosphaeria nodorum.

Uromyces appendiculatus = experiment: In vivo preventive test on Uromyces appendiculatus (bean rust), Examples G and R7; conditions: 264 h, preventive spray, evaluated 11 days after inoculation
Puccinia recondita = experiment: In vivo preventive test on Puccinia recondita (brown rust on wheat), Examples C and R3; conditions: Puccinia recondita, 264 h, preventive spray, evaluated 11 days after inoculation
[10] = system: Blumeria graminis fsp. hordei; experiment: In vivo preventive Blumeria test (barley), Example K; conditions: 168 h, 500 ppm of active ingredient, preventive spray, evaluated 7 days after inoculation, read-out: efficacy
Source text: After the spray coating has been dried, the plants are dusted with spores of Blumeria graminis fsp. hordei.

Phakopsora pachyrhizi = experiment: In vivo preventive Phakopsora test (soybeans), Example I; conditions: 168 h, 100 ppm of active ingredient, preventive spray, evaluated 7 days after inoculation, read-out: efficacy
Sphaerotheca fuliginea = experiment: In vivo preventive test on Sphaerotheca fuliginea (powdery mildew on cucurbits), Examples F and R6; conditions: Podosphaera fuliginea, 360 h; 500 ppm of active ingredient; gherkin, preventive spray, evaluated 15 days after inoculation; read-out: efficacy
[11] = Measurement of LogP values by HPLC on reversed phase columns (EEC directive 79/831 Annex V.A8); assay type: physicochemical; conditions: method [a]: LC-UV, acidic range, 0.1% formic acid in water and acetonitrile as eluent; Table 1
Procedure: Measurement of Log P values was performed as outlined above.

Alternaria solani = experiment: In vivo preventive Alternaria test (tomatoes), Example H; conditions: 72 h, 100 ppm of active ingredient, preventive spray, evaluated 3 days after inoculation, read-out: efficacy
Alternaria brassicae = experiment: In vivo preventive test on Alternaria brassicae (leaf spot on radish), Examples A and R1; conditions: Alternaria brassicae, 144 h, 500 ppm of active ingredient, preventive spray, evaluated 6 days after inoculation, read-out: efficacy
[12] = Zymoseptoria tritici, 576 h, 500 ppm of active ingredient, wheat, preventive spray, evaluated 24 days after inoculation, read-out: efficacy
[13] = 500 ppm of active ingredient, bean, read-out: efficacy
[14] = 500 ppm of active ingredient, wheat, read-out: efficacy
[15] = Pyrenophora teres, 336 h, 500 ppm of active ingredient, preventive spray, evaluated 14 days after inoculation, read-out: efficacy
[16] = Botrytis cinerea, 500 ppm of active ingredient, preventive spray, evaluated 4 to 5 days after inoculation, read-out: efficacy

Row | Structure (SMILES) | pest or weed control at 500 ppm (Fusarium graminearum) | pest or weed control at 100 ppm (Venturia inaequalis) | pest or weed control at 500 ppm (Pyricularia oryzae) | pest or weed control at 500 ppm (Fusarium culmorum [7]) | pest or weed control at 500 ppm (Septoria tritici [2]; [12]) | pest or weed control at 500 ppm [8] | pest or weed control at 500 ppm (Leptosphaeria nodorum [9]) | pest or weed control at 500 ppm (Uromyces appendiculatus; [13]) | pest or weed control at 500 ppm (Puccinia recondita; [14]) | pest or weed control at 500 ppm [10] | pest or weed control at 500 ppm (Pyrenophora teres; [15]) | pest or weed control at 100 ppm (Phakopsora pachyrhizi) | pest or weed control at 500 ppm (Sphaerotheca fuliginea) | chromatographic logP [11] | pest or weed control at 500 ppm (Botrytis cinerea [5]; [16]) | pest or weed control at 100 ppm (Alternaria solani) | pest or weed control at 500 ppm (Alternaria brassicae) | also measured
1 | OC(Cc1ccc(Cl)cc1F)(Cn1ccnc1)C1(Cl)CC1 (racemic) [reference compound] |  |  |  |  |  |  |  |  |  |  |  |  |  |  |  |  |  | Septoria tritici ED50 value in ppm (Septoria tritici [1]): 0.02 ppm; Efficacy in % (Septoria tritici [2]; rate of application 100 ppm, wheat): 0%; Efficacy in % (Septoria tritici [2]; rate of application 500 ppm, wheat): 100%; Efficacy in % (Pyrenophora teres; Example Q2, rate of application 100 ppm): 0%; Efficacy in % (Pyrenophora teres; Example Q2, rate of application 500 ppm): 0%; Fusarium culmorum ED50 value in ppm (Fusarium culmorum [3]): 0.04 ppm; Leptosphaeria nodorum ED50 value in ppm (Leptosphaeria nodorum [4]): 0.04 ppm; Efficacy in % (Botrytis cinerea [5]; Example Q1, rate of application 100 ppm): 70%; Efficacy in % (Botrytis cinerea [5]; Example Q1, rate of application 500 ppm): 100%; Botrytis cinerea ED50 value in ppm (Botrytis cinerea [6]): 0.53 ppm
2 | N#Cc1cncn1CC(O)(Cc1ccccc1Cl)C1(Cl)CC1 (stereo not drawn) [Example I-06, 1-[2-(1-chlorocyclopropyl)-3-(2-chlorophenyl)-2-hydroxypropyl]-1H-imidazole-5-carbonitrile] | 90 to 100% | 80 to 89% | 90 to 100% | 90 to 100% | 90 to 100% | 90 to 100% | 90 to 100% | 90 to 100% | 90 to 100% | 90 to 100% | 90 to 100% | 90 to 100% | 90 to 100% | 2.92 | 90 to 100% | 90 to 100% |  | pest or weed control at 100 ppm (Septoria tritici [2]; Zymoseptoria tritici, 576 h, Example R5, wheat, preventive spray, 100 ppm, evaluated 24 days after inoculation, read-out: Efficacy in %): 98%; pest or weed control at 500 ppm (Septoria tritici [2]; Zymoseptoria tritici, 576 h, Example R5, wheat, preventive spray, 500 ppm, evaluated 24 days after inoculation, read-out: Efficacy in %): 100%; pest or weed control at 100 ppm (Uromyces appendiculatus; Example R7, bean, 100 ppm, read-out: Efficacy in %): 100%; pest or weed control at 500 ppm (Uromyces appendiculatus; Example R7, bean, 500 ppm, read-out: Efficacy in %): 100%; pest or weed control at 100 ppm (Puccinia recondita; Example R3, wheat, 100 ppm, read-out: Efficacy in %): 89%; pest or weed control at 500 ppm (Puccinia recondita; Example R3, wheat, 500 ppm, read-out: Efficacy in %): 94%; pest or weed control at 100 ppm (Pyrenophora teres; Pyrenophora teres, 336 h, Example R4, rate of application 100 ppm, read-out: Efficacy in %): 86%; pest or weed control at 500 ppm (Pyrenophora teres; Pyrenophora teres, 336 h, Example R4, rate of application 500 ppm, read-out: Efficacy in %): 93%; pest or weed control at 100 ppm (Botrytis cinerea [5]; Botrytis cinerea, Example R2, rate of application 100 ppm, read-out: Efficacy in %): 80%; pest or weed control at 500 ppm (Botrytis cinerea [5]; Botrytis cinerea, Example R2, rate of application 500 ppm, read-out: Efficacy in %): 97%
3 | OC(Cc1ccccc1Cl)(Cn1cncc1F)C1(Cl)CC1 (stereo not drawn) [Example I-16] | 80 to 89% | 90 to 100% | 90 to 100% | 90 to 100% | 90 to 100% | 90 to 100% | 90 to 100% | 90 to 100% | 80 to 89% | 90 to 100% | 90 to 100% | 90 to 100% | 90 to 100% | 1.94 | 90 to 100% | 90 to 100% | 90 to 100% | 
4 | OC(Cc1cc(F)ncc1Cl)(Cn1cncc1Cl)C1(Cl)CC1 (stereo not drawn) [Example I-18] | 90 to 100% | 90 to 100% | 90 to 100% | 80 to 89% | 90 to 100% | 90 to 100% | 90 to 100% | 90 to 100% | 90 to 100% | 90 to 100% | 90 to 100% | 90 to 100% | 90 to 100% | 2.01 | 90 to 100% | 90 to 100% | 70 to 79% | 
5 | N#Cc1cncn1CC(O)(Cc1ccccc1)C1(Cl)CC1 (stereo not drawn) [Example I-65] | 90 to 100% | 80 to 89% | 90 to 100% | 90 to 100% | 80 to 89% | 90 to 100% | 80 to 89% | 90 to 100% | 90 to 100% | 90 to 100% | 90 to 100% | 90 to 100% | 90 to 100% | 2.64 | 90 to 100% | 90 to 100% |  | 
6 | N#Cc1cncn1CC(O)(Cc1ccc(F)cc1)C1(Cl)CC1 (stereo not drawn) [Example I-157] | 90 to 100% | 90 to 100% | 90 to 100% | 90 to 100% | 90 to 100% | 80 to 89% | 80 to 89% | 90 to 100% | 90 to 100% | 90 to 100% | 90 to 100% | 90 to 100% | 90 to 100% | 2.75 | 90 to 100% | 80 to 89% |  | 
